{
  "source": "patent US20250263390A1",
  "about": "“NOVEL SUBSTITUTED 6,7-DIHYDRO-5H-BENZO[7]ANNULENE COMPOUNDS AND THEIR DERIVATIVES, PROCESSES FOR THEIR PREPARATION AND THERAPEUTIC USES THEREOF” (SANOFI, priority 2022, published 2025)",
  "data": [
    {"biological_target": "T1, ERα (Homo sapiens, UniProt P03372)", "T1 construct": "host or cells: MCF7", "T1 sequence (P03372 1-595)": "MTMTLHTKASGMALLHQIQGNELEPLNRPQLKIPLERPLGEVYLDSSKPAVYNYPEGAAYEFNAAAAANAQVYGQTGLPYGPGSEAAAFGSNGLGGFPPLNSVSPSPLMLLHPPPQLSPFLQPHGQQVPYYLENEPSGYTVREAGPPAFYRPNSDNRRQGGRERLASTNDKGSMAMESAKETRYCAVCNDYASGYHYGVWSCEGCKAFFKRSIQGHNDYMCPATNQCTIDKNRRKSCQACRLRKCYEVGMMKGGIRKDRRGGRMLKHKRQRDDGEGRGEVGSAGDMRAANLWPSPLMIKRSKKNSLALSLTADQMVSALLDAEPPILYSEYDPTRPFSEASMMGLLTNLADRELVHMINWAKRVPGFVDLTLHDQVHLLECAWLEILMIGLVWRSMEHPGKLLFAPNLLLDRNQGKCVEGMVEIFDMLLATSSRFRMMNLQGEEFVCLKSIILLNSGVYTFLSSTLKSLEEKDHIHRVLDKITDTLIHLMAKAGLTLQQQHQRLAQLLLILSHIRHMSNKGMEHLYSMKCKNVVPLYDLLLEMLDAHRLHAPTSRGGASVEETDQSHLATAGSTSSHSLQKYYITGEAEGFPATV", "experiment": "Estrogen receptor degradation activity: breast cancer cell ERα in cell western assay", "assay_type": "cell-based", "conditions": "MCF7 cells, 4 hours, relative to fulvestrant 0.1 μM positive control", "protocol": "Test: Estrogen Receptor Degradation Activity Said test involves measuring the in vitro degradation activity of the compounds of the Table 1a. The measurements of the degradation activities were made using a breast cancer cell ERα in cell western assay as described hereunder. MCF7 cells (ATCC) were seeded in 384 wells microplate (collagen coated) at a concentration of 10000 cells/30 μL per well in red phenol free MEM alpha medium (invitrogen) containing 5% charcoal dextran striped FBS. The following day, 9 points serial 1:5 dilution of each compound was added to the cells in 2.5p L at final concentrations ranging from 0.3-0.0000018 μM (in table 2), or 0.1 μM for fulvestrant (using as positive control). At 4 hours post compound addition the cells were fixed by adding 25 μL of formalin (final concentration 5% formalin containing 0.1% triton) for 10 minutes at room temperature and then washed twice with PBS. Then, 50 μL of LI-COR blocking buffer containing 0.1% Triton was added to plate for 30 minutes at room temperature. LI-COR blocking buffer was removed and cells were incubated overnight at cold room with 50 μL anti-ER rabbit monoclonal antibody (Thermo scientific MA1-39540) diluted at 1:1000 in LI-COR blocking buffer containing 0.1% tween-20. Wells which were treated with blocking buffer but no antibody were used as background control. Wells were washed twice with PBS (0.1% tween-20) and incubated at 37° C. for 60 minutes in LI-COR (0.1% tween-20) containing goat anti-rabbit antibody Alexa 488 (1:1000) and Syto-64 a DNA dye (2 μM final concentration). Cells were then washed 3 times in PBS and scanned in ACUMEN explorer (TTP-Labtech). Integrated intensities in the green fluorescence and red fluorescence were measured to determine the levels of ERα and DNA respectively. The degradation activity with respect to estrogen receptors in this test is given by the concentration which degrades 50% of the estrogen receptor (or IC50) in nM. The % of ERα levels decrease were determined as follows: % inhibition=100*(1−(sample−fulvestrant: DMSO−fulvestrant)).", "units": {"% Degradation At 0.3 μM": "%"}, "values": [
      {"compound": "Cc1ccc(F)c(C)c1C1=C(c2ccc(CC3CN(CCCF)C3)cc2)c2ccc(C(=O)O)cc2CCC1", "note": "[Compound 73, 8-(3-fluoro-2,6-dimethylphenyl)-9-(4-((1-(3-fluoropropyl)azetidin-3-yl)methyl)phenyl)-6,7-dihydro-5H-benzo[7]annulene-3-carboxylic acid]", "% Degradation At 0.3 μM": 84},
      {"compound": "O=C(O)c1ccc2c(c1)CCCC(c1ccc(C(F)(F)F)c(O)c1)=C2c1ccc(CC2CN(CCCF)C2)cc1", "note": "[Compound 52, 9-(4-((1-(3-fluoropropyl)azetidin-3-yl)methyl)phenyl)-8-(3-hydroxy-4-(trifluoromethyl)phenyl)-6,7-dihydro-5H-benzo[7]annulene-3-carboxylic acid]", "% Degradation At 0.3 μM": 90},
      {"compound": "O=C(O)c1ccc2c(c1)CCCC(c1c(Cl)cccc1OC(F)(F)F)=C2c1ccc(CC2CN(CCCF)C2)cc1", "note": "[Compound 50, 8-(2-chloro-6-(trifluoromethoxy)phenyl)-9-(4-((1-(3-fluoropropyl)azetidin-3-yl)methyl)phenyl)-6,7-dihydro-5H-benzo[7]annulene-3-carboxylic acid]", "% Degradation At 0.3 μM": 91},
      {"compound": "CC1(C)CCC(C2=C(c3ncc(CC4CN(CCC(F)F)C4)cc3F)c3ccc(C(=O)O)cc3CCC2)CC1", "note": "[Compound 13, 9-(5-((1-(3,3-difluoropropyl)azetidin-3-yl)methyl)-3-fluoropyridin-2-yl)-8-(4,4-dimethylcyclohexyl)-6,7-dihydro-5H-benzo[7]annulene-3-carboxylic acid]", "% Degradation At 0.3 μM": 64},
      {"compound": "COc1cccc(C2=C(c3ccc(CC4CN(CCCF)C4)cc3)c3ccc(C(=O)O)cc3CCC2)c1C(F)F", "note": "[Compound 8, 8-(2-(difluoromethyl)-3-methoxyphenyl)-9-(4-((1-(3-fluoropropyl)azetidin-3-yl)methyl)phenyl)-6,7-dihydro-5H-benzo[7]annulene-3-carboxylic acid]", "% Degradation At 0.3 μM": 89},
      {"compound": "COc1cc(C2=C(c3ccc(CC4CN(CCCF)C4)cc3)c3ccc(C(=O)O)cc3CCC2)ccc1C(F)(F)F.Cl", "note": "[Compound 19, 9-(4-((1-(3-fluoropropyl)azetidin-3-yl)methyl)phenyl)-8-(3-methoxy-4-(trifluoromethyl)phenyl)-6,7-dihydro-5H-benzo[7]annulene-3-carboxylic acid, hydrochloride]", "% Degradation At 0.3 μM": 93},
      {"compound": "CCc1cc(C(F)(F)F)ccc1C1=C(c2ccc(CC3CN(CCCF)C3)cc2)c2ccc(C(=O)O)cc2CCC1", "note": "[Compound 69, 8-(2-ethyl-4-(trifluoromethyl)phenyl)-9-(4-((1-(3-fluoropropyl)azetidin-3-yl)methyl)phenyl)-6,7-dihydro-5H-benzo[7]annulene-3-carboxylic acid]", "% Degradation At 0.3 μM": 91},
      {"compound": "Cl.O=C(O)c1ccc2c(c1)CCCC(c1cccc(OC(F)(F)F)c1)=C2c1ccc(CC2CN(CCCF)C2)cc1", "note": "[Compound 22, 9-(4-((1-(3-fluoropropyl)azetidin-3-yl)methyl)phenyl)-8-(3-(trifluoromethoxy)phenyl)-6,7-dihydro-5H-benzo[7]annulene-3-carboxylic acid, hydrochloride]", "% Degradation At 0.3 μM": 92},
      {"compound": "Cc1ccc(C2=C(c3ccc(CC4CN(CCCF)C4)cc3)c3ccc(C(=O)O)cc3CCC2)cc1C(F)(F)F", "note": "[Compound 29, 9-(4-((1-(3-fluoropropyl)azetidin-3-yl)methyl)phenyl)-8-(4-methyl-3-(trifluoromethyl)phenyl)-6,7-dihydro-5H-benzo[7]annulene-3-carboxylic acid]", "% Degradation At 0.3 μM": 93},
      {"compound": "COc1cc(C(F)(F)F)ccc1C1=C(c2ccc(CC3CN(CCCF)C3)cc2)c2ccc(C(=O)O)cc2CCC1.Cl", "note": "[Compound 16, 9-(4-((1-(3-fluoropropyl)azetidin-3-yl)methyl)phenyl)-8-(2-methoxy-4-(trifluoromethyl)phenyl)-6,7-dihydro-5H-benzo[7]annulene-3-carboxylic acid, hydrochloride]", "% Degradation At 0.3 μM": 92},
      {"compound": "COc1c(C)cccc1C1=C(c2ccc(CC3CN(CCCF)C3)cc2)c2ccc(C(=O)O)cc2CCC1.Cl", "note": "[Compound 49, 9-(4-((1-(3-fluoropropyl)azetidin-3-yl)methyl)phenyl)-8-(2-methoxy-3-methylphenyl)-6,7-dihydro-5H-benzo[7]annulene-3-carboxylic acid, hydrochloride]", "% Degradation At 0.3 μM": 92},
      {"compound": "COc1c(F)ccc(C)c1C1=C(c2ccc(CC3CN(CCCF)C3)cc2)c2ccc(C(=O)O)cc2CCC1", "note": "[Compound 65, 8-(3-fluoro-2-methoxy-6-methylphenyl)-9-(4-((1-(3-fluoropropyl)azetidin-3-yl)methyl)phenyl)-6,7-dihydro-5H-benzo[7]annulene-3-carboxylic acid]", "% Degradation At 0.3 μM": 100},
      {"compound": "COc1cccc(C2=C(c3ccc(CC4CN(CCCF)C4)cc3)c3ccc(C(=O)O)cc3CCC2)c1C", "note": "[Compound 7, 9-(4-((1-(3-fluoropropyl)azetidin-3-yl)methyl)phenyl)-8-(3-methoxy-2-methylphenyl)-6,7-dihydro-5H-benzo[7]annulene-3-carboxylic acid]", "% Degradation At 0.3 μM": 93},
      {"compound": "Cc1cc(C2=C(c3ccc(CC4CN(CCCF)C4)cc3)c3ccc(C(=O)O)cc3CCC2)c(C)cc1F", "note": "[Compound 31, 8-(4-fluoro-2,5-dimethylphenyl)-9-(4-((1-(3-fluoropropyl)azetidin-3-yl)methyl)phenyl)-6,7-dihydro-5H-benzo[7]annulene-3-carboxylic acid]", "% Degradation At 0.3 μM": 92},
      {"compound": "Cc1ccc(C2=C(c3ccc(CC4CN(CCCF)C4)cc3)c3ccc(C(=O)O)cc3CCC2)c(C)c1Cl", "note": "[Compound 58, 8-(3-chloro-2,4-dimethylphenyl)-9-(4-((1-(3-fluoropropyl)azetidin-3-yl)methyl)phenyl)-6,7-dihydro-5H-benzo[7]annulene-3-carboxylic acid]", "% Degradation At 0.3 μM": 90},
      {"compound": "O=C(O)c1ccc2c(c1)CCCC(c1cccc(Cl)c1OC(F)(F)F)=C2c1ccc(CC2CN(CCCF)C2)cc1", "note": "[Compound 5, 8-(3-chloro-2-(trifluoromethoxy)phenyl)-9-(4-((1-(3-fluoropropyl)azetidin-3-yl)methyl)phenyl)-6,7-dihydro-5H-benzo[7]annulene-3-carboxylic acid]", "% Degradation At 0.3 μM": 87},
      {"compound": "CCc1c(Cl)cccc1C1=C(c2ccc(CC3CN(CCCF)C3)cc2)c2ccc(C(=O)O)cc2CCC1", "note": "[Compound 38, 8-(3-chloro-2-ethylphenyl)-9-(4-((1-(3-fluoropropyl)azetidin-3-yl)methyl)phenyl)-6,7-dihydro-5H-benzo[7]annulene-3-carboxylic acid]", "% Degradation At 0.3 μM": 92},
      {"compound": "Cc1ccc(C2=C(c3ccc(CC4CN(CCCF)C4)cc3)c3ccc(C(=O)O)cc3CCC2)cc1O", "note": "[Compound 56, 9-(4-((1-(3-fluoropropyl)azetidin-3-yl)methyl)phenyl)-8-(3-hydroxy-4-methylphenyl)-6,7-dihydro-5H-benzo[7]annulene-3-carboxylic acid]", "% Degradation At 0.3 μM": 95},
      {"compound": "O=C(O)c1ccc2c(c1)CCCC(c1cccc3c1OCCC3)=C2c1ccc(CC2CN(CCCF)C2)cc1", "note": "[Compound 9, 8-(chroman-8-yl)-9-(4-((1-(3-fluoropropyl)azetidin-3-yl)methyl)phenyl)-6,7-dihydro-5H-benzo[7]annulene-3-carboxylic acid]", "% Degradation At 0.3 μM": 88},
      {"compound": "COc1cccc(C(F)(F)F)c1C1=C(c2ccc(CC3CN(CCCF)C3)cc2)c2ccc(C(=O)O)cc2CCC1", "note": "[Compound 63, 9-(4-((1-(3-fluoropropyl)azetidin-3-yl)methyl)phenyl)-8-(2-methoxy-6-(trifluoromethyl)phenyl)-6,7-dihydro-5H-benzo[7]annulene-3-carboxylic acid]", "% Degradation At 0.3 μM": 90},
      {"compound": "Cc1ccc(C(F)F)c(C2=C(c3ccc(CC4CN(CCCF)C4)cc3)c3ccc(C(=O)O)cc3CCC2)c1", "note": "[Compound 23, 8-(2-(difluoromethyl)-5-methylphenyl)-9-(4-((1-(3-fluoropropyl)azetidin-3-yl)methyl)phenyl)-6,7-dihydro-5H-benzo[7]annulene-3-carboxylic acid]", "% Degradation At 0.3 μM": 91}
    ]}
  ]
}
